This note sets out measurements from patent US20220315624A1, “THIOSTREPTON ANALOGS AND METHODS OF MAKING AND USING SAME” (YALE UNIVERSITY, priority 2019, published 2022).

In one data set the test system is S. aureus isolates. Nature of the data set: MIC broth microdilution, S. aureus isolates. In kind it is cell-based. The following applies: Staphylococcus aureus; across MSSA and MRSA isolates; read-out: MIC values against S. aureus isolates. Here is the method: (§1) Twenty-four test agents were shipped to Micromyx and stored at −20° C. until assayed. The compounds were dissolved in 100% DMSO at 6.46 mg/mL prior to testing. Comparator drugs were supplied by Micromyx and were handled as described below:
(§2) The test organisms for the assay were recent clinical isolates or reference strains acquired from the American Type Culture Collection (ATCC; Manassas, Va.). Upon receipt, the isolates were streaked onto Trypticase Soy Agar II+5% sheep blood (TSAB). Colonies were harvested from the plates and a cell suspension was prepared in Trypticase Soy Broth containing cryoprotectant. Aliquots were then frozen at −80° C. Prior to the assay, the frozen seeds of all bacterial isolates to be tested were thawed and streaked for isolation onto TSAB (BD/BBL, Sparks, Md.; Lot No. 9011894), and were incubated overnight at 35° C.
(§3) The test medium for all isolates was cation-adjusted Mueller Hinton broth (CAMHB; BD/BBL; Lot No. 8190586). CAMHB (Cation Adjusted Mueller Hinton Broth) was supplemented with 3% (v/v) lysed horse blood (LHB; Hemostat, Dixon, Calif.; Lot No. 474990) for the testing of streptococci.
(§4) MIC values were determined using a broth microdilution method as recommended by CLSI. Automated liquid handlers (Multidrop 384, Labsystems, Helsinki, Finland; Biomek 2000 and Biomek F/X, Beckman Coulter, Fullerton Calif.) were used to conduct serial dilutions and make liquid transfers.
(§5) The wells of standard 96-well microdilution plates (Costar 3795, Corning Inc., Corning, N.Y.) were filled with 150 μL of the appropriate diluent in columns 2-12 on the Multidrop 384 (DMSO for the thiostrepton analogs, deionized H2O for vancomycin and ceftazidime). These plates were used to prepare the drug “mother plate” which provided the serial drug dilutions for the replicate “daughter plates”. The compounds (300 μL) were dispensed at 101× the highest concentration to be tested into the appropriate row of the “mother plate”. The Biomek 2000 was used to transfer 150 μL of each stock solution from the wells in Column 1 of the mother plate to make ten subsequent 2-fold serial dilutions. The wells of Column 12 contained no drug and served as the organism growth control wells. The daughter plates were loaded with 190 μL of test medium using the Multidrop 384.
(§6) The daughter plates were prepared on the Biomek F/X instrument which transferred […] of drug solution from each well of the mother plate to each corresponding well of each daughter plate in a single step. The wells of the daughter plates ultimately contained 190 μL of media, 2 μL of drug solution, and 10 μL of inoculum prepared as described below. The final concentration of DMSO (if used as a solvent) in the test well was 1%.
(§7) A standardized inoculum of each organism was prepared per CLSI methods. A suspension of organisms from a fresh plate was prepared in CAMHB to equal the turbidity of a 0.5 McFarland standard. The suspensions were diluted 1:20 in CAMHB, or in the case of streptococci CAMHB with LHB. The inoculum for each organism was dispensed into sterile reservoirs divided by length (Beckman Coulter), and the Biomek 2000 was used to inoculate the plates. Daughter plates were placed on the Biomek 2000 work surface reversed so that inoculation took place from low to high drug concentration. The Biomek 2000 delivered 10 μL of standardized inoculum into each well. These dilutions yielded a final cell concentration in the daughter plates of approximately 5.0×10^5 CFU/mL.
(§8) Plates were stacked 3 high, covered with a lid on the top plate, placed in plastic bags, and incubated at 35° C. for 16-20 hr for all organisms except streptococci which were incubated for 20-24 hr. Following incubation, the microplates were removed from the incubator and viewed from the bottom using a plate viewer. The MIC was read and recorded as the lowest concentration of drug that inhibited visible growth of the organism. […]
For orientation: In broth dilution the organism is exposed to a series of concentrations in liquid medium.

A further data set concerns S. aureus MMX 8088 MRSA. As to the kind of experiment: MIC broth microdilution. Type of data set: cell-based. The following applies: Staphylococcus aureus; S. aureus MMX 8088 MRSA; CAMHB; read-out: MIC. Here is the method:
as §1, §2, §3, §4, §5, §6, §7, §8

In the next data set the test system is S. pyogenes ATCC 19615. Nature of the data set: MIC broth microdilution. In kind it is cell-based. The following applies: Streptococcus pyogenes, ATCC19615, 20 h; S. pyogenes ATCC 19615; CAMHB with 3% lysed horse blood; read-out: MIC. As to the method: as §1, §2, §3, §4, §5, §6, §7, §8
The subject of data set [1] is E. faecalis ATCC 29212 VSE. As to the kind of experiment: MIC broth microdilution. Type of data set: cell-based. Particulars: Enterococcus faecalis, ATCC29212; E. faecalis ATCC 29212 VSE; CAMHB; read-out: MIC. As to the method: as §1, §2, §3, §4, §5, §6, §7, §8
Data set [2] concerns S. pneumoniae ATCC 49619 PISP. Nature of the data set: MIC broth microdilution. Type of data set: cell-based. The following applies: Streptococcus pneumoniae, ATCC49619, 20 h; S. pneumoniae ATCC 49619 PISP; CAMHB with 3% lysed horse blood; read-out: MIC. As to the method: as §1, §2, §3, §4, §5, §6, §7, §8
Data set [3] deals with S. aureus ATCC 29213 MSSA. As to the kind of experiment: MIC broth microdilution. Type of data set: cell-based. The following applies: Staphylococcus aureus; S. aureus ATCC 29213 MSSA; CAMHB; read-out: MIC. Here is the method:
as §1, §2, §3, §4, §5, §6, §7, §8

In a further data set the test system is E. faecium MMX 485 VRE. As to the kind of experiment: MIC broth microdilution. The following applies: Enterococcus faecium; E. faecium MMX 485 VRE; CAMHB; read-out: MIC. Type of data set: cell-based. As to the method: as §1, §2, §3, §4, §5, §6, §7, §8
For another data set, the system named is E. faecium MMX 708 VSE. Nature of the data set: MIC broth microdilution. Type of data set: cell-based. The following applies: Enterococcus faecium, MMX708VSE; E. faecium MMX 708 VSE; CAMHB; read-out: MIC. As to the method: as §1, §2, §3, §4, §5, §6, §7, §8
Another data set has as its system E. coli ATCC 25922. Nature of the data set: MIC broth microdilution. Type of data set: cell-based. Particulars: Escherichia coli, ATCC25922; E. coli ATCC 25922; CAMHB; read-out: MIC. As to the method: as §1, §2, §3, §4, §5, §6, §7, §8
The test system of a further data set is E. faecalis MMX 486 VRE. As to the kind of experiment: MIC broth microdilution. Type of data set: cell-based. Particulars: Enterococcus faecalis; E. faecalis MMX 486 VRE; CAMHB; read-out: MIC. Here is the method:
as §1, §2, §3, §4, §5, §6, §7, §8

The nature of data set [4]: Aqueous solubility analysis in MOPS buffer. In kind it is physicochemical. Particulars: aqueous 10 mM MOPS buffer, thermodynamic from solid; after 24 hours in 10 mM aqueous MOPS buffer, pH 7.2. Here is the method: A 2 dram vial was loaded with ˜0.5 mg of a thiostrepton derivative and suspended in ˜4 mL of aqueous 10 mM MOPS buffer (pKa 7.2). The suspension was stirred vigorously for 24 h to ensure equilibration, then filtered through a […] centrifuge filtration unit. A 3.0 mL aliquot was concentrated, and the dried residue was diluted with 0.30 mL of 1:1 1,4-dioxane/H2O (10× original concentration necessitated by detection limits). The total UV absorbance (200-300 nm) was measured in triplicate by UPLC runs with a photodiode array detector. A calibration curve for each compound was created using data points from 3 trials each of concentrations in 1:1 1,4-dioxane/H2O ranging from […]. These concentrations were plotted against their respective average absorbances. The experimental concentration of each compound was calculated by dividing the found μg/mL value by the residue concentration factor of 10 to yield the actual solubility value.

Data set [5] can be described thus: Un-inoculated solubility control plate (drug precipitation). In kind it is physicochemical. The following applies: at 64 μg/mL in CAMHB.

In brackets after ≈: the same amount, converted by molar mass.

As for `C=C(NC(=O)c1csc(C2=N[C@@H]3c4csc(n4)[C@H]4NC(=O)c5csc(n5)[C@H]([C@](C)(O)[C@@H](C)O)NC(=O)C5CSC(=N5)/C(=C/C)NC(=O)[C@H]([C@@H](C)O)NC(=O)c5csc(n5)[C@]3(CC2)NC(=O)[C@H](C)NC(=O)C(=C)NC(=O)[C@H](C)NC(=O)[C@H]([C@@H](C)CC)N[C@@H]2C=Cc3c([C@H](C)O)cc(nc3[C@H]2O)C(=O)O[C@@H]4C)n1)C(=O)NC(=CNC(=O)c1cccc(/C=N/OCCO)c1)C(N)=O` [RJS-14], the minimum inhibitory concentration (MIC) is 0.25 to 0.5 µg/mL (≈ 0.134 to 0.267 µM) in the data set with S. aureus isolates; 0.5 µg/mL (≈ 0.267 µM) in the data set on S. aureus MMX 8088 MRSA; 0.004 µg/mL (≈ 0.00214 µM) in the data set with S. pyogenes ATCC 19615; 0.5 µg/mL (≈ 0.267 µM) in [1]; 0.004 µg/mL (≈ 0.00214 µM) in [2]; 0.5 µg/mL (≈ 0.267 µM) in [3]. Besides, the minimum inhibitory concentration (MIC) is 0.5 µg/mL (≈ 0.267 µM) in the data set with E. faecium MMX 485 VRE, 1 µg/mL (≈ 0.534 µM) in the data set on E. faecium MMX 708 VSE, > 64 µg/mL in the data set with E. coli ATCC 25922 and 0.5 µg/mL (≈ 0.267 µM) in the data set with E. faecalis MMX 486 VRE. The same molecule yielded a solubility at 24 h in [4] of 1.4 µg/mL (≈ 0.748 µM).
Turning to `C=C(NC(=O)c1csc(C2=N[C@@H]3c4csc(n4)[C@H]4NC(=O)c5csc(n5)[C@H]([C@](C)(O)[C@@H](C)O)NC(=O)C5CSC(=N5)/C(=C/C)NC(=O)[C@H]([C@@H](C)O)NC(=O)c5csc(n5)[C@]3(CC2)NC(=O)[C@H](C)NC(=O)C(=C)NC(=O)[C@H](C)NC(=O)[C@H]([C@@H](C)CC)N[C@@H]2C=Cc3c([C@H](C)O)cc(nc3[C@H]2O)C(=O)O[C@@H]4C)n1)C(=O)NC(=CNC(=O)COCCOC)C(N)=O` [RJS-10], the MIC in the data set on S. aureus MMX 8088 MRSA was found to be 1 µg/mL (≈ 0.557 µM); with S. pyogenes ATCC 19615, 0.015 µg/mL (≈ 0.00835 µM); in [1] it was 1 µg/mL (≈ 0.557 µM); in data set [2], 0.015 µg/mL (≈ 0.00835 µM); in data set [3] it was 1 µg/mL (≈ 0.557 µM); with E. faecium MMX 485 VRE, 1 µg/mL (≈ 0.557 µM). Further, the MIC is 1 µg/mL (≈ 0.557 µM) in the data set with E. faecium MMX 708 VSE, > 64 µg/mL with E. coli ATCC 25922 and 1 µg/mL (≈ 0.557 µM) with E. faecalis MMX 486 VRE. In data set [4], the solubility at 24 h came out at 19 µg/mL (≈ 10.6 µM). Further, the “Precipitation in CAMHB” value in data set [5] is on record as “distinct precipitation”.
For `C=C(NC(=O)c1csc(C2=N[C@@H]3c4csc(n4)[C@H]4NC(=O)c5csc(n5)[C@H]([C@](C)(O)[C@@H](C)O)NC(=O)C5CSC(=N5)/C(=C/C)NC(=O)[C@H]([C@@H](C)O)NC(=O)c5csc(n5)[C@]3(CC2)NC(=O)[C@H](C)NC(=O)C(=C)NC(=O)[C@H](C)NC(=O)[C@H]([C@@H](C)CC)N[C@@H]2C=Cc3c([C@H](C)O)cc(nc3[C@H]2O)C(=O)O[C@@H]4C)n1)C(=O)NC(=CNC(=O)C(C)C)C(N)=O` [RJS-04], the MIC is 0.25 to 0.5 µg/mL (≈ 0.143 to 0.286 µM) in the data set with S. aureus isolates; 0.5 µg/mL (≈ 0.286 µM) with S. aureus MMX 8088 MRSA; 0.004 µg/mL (≈ 0.00229 µM) in the data set on S. pyogenes ATCC 19615; 0.5 µg/mL (≈ 0.286 µM) in [1]; 0.004 µg/mL (≈ 0.00229 µM) in data set [2]; 0.5 µg/mL (≈ 0.286 µM) in data set [3]. Also, the minimal inhibitory concentration (MIC) is 0.25 µg/mL (≈ 0.143 µM) with E. faecium MMX 485 VRE, 1 µg/mL (≈ 0.571 µM) with E. faecium MMX 708 VSE, > 64 µg/mL in the data set with E. coli ATCC 25922 and 1 µg/mL (≈ 0.571 µM) in the data set on E. faecalis MMX 486 VRE. In data set [4], this molecule registered a solubility at 24 h of 16.2 µg/mL (≈ 9.26 µM). Besides, the “Precipitation in CAMHB” value in [5] was “distinct precipitation”.

As a reminder, the MIC is the least concentration at which growth counts as inhibited. The term solubility denotes how much of the substance goes into solution per volume.
